Activity calls are given as the source filed them. The calls are words filed in the database; no cut-off is given here. Where a SMILES comes first, the peptide text is derived from it. [ ]: non-standard residue; d: D form. Gly(N-piperonyl) = O=C(O)CNCc1ccc2c(c1)OCO2; Gly(N-propargyl) = C#CCNCC(=O)O; NFurfurylGly = O=C(O)CNCc1ccco1; NAllylGly = C=CCNCC(=O)O; Nleu = CC(C)CNCC(=O)O; Nlys = NCCCCNCC(=O)O
Tests used:
CREB-binding protein [1] = target: T1, CREB-binding protein (Homo sapiens, UniProt Q92793); test: Binding affinity to histidine tagged KIX domain of CREB-binding protein expressed in Escherichia coli by affinity purification assay
Target sequence in this assay (Q92793 2-2442 limits assumed): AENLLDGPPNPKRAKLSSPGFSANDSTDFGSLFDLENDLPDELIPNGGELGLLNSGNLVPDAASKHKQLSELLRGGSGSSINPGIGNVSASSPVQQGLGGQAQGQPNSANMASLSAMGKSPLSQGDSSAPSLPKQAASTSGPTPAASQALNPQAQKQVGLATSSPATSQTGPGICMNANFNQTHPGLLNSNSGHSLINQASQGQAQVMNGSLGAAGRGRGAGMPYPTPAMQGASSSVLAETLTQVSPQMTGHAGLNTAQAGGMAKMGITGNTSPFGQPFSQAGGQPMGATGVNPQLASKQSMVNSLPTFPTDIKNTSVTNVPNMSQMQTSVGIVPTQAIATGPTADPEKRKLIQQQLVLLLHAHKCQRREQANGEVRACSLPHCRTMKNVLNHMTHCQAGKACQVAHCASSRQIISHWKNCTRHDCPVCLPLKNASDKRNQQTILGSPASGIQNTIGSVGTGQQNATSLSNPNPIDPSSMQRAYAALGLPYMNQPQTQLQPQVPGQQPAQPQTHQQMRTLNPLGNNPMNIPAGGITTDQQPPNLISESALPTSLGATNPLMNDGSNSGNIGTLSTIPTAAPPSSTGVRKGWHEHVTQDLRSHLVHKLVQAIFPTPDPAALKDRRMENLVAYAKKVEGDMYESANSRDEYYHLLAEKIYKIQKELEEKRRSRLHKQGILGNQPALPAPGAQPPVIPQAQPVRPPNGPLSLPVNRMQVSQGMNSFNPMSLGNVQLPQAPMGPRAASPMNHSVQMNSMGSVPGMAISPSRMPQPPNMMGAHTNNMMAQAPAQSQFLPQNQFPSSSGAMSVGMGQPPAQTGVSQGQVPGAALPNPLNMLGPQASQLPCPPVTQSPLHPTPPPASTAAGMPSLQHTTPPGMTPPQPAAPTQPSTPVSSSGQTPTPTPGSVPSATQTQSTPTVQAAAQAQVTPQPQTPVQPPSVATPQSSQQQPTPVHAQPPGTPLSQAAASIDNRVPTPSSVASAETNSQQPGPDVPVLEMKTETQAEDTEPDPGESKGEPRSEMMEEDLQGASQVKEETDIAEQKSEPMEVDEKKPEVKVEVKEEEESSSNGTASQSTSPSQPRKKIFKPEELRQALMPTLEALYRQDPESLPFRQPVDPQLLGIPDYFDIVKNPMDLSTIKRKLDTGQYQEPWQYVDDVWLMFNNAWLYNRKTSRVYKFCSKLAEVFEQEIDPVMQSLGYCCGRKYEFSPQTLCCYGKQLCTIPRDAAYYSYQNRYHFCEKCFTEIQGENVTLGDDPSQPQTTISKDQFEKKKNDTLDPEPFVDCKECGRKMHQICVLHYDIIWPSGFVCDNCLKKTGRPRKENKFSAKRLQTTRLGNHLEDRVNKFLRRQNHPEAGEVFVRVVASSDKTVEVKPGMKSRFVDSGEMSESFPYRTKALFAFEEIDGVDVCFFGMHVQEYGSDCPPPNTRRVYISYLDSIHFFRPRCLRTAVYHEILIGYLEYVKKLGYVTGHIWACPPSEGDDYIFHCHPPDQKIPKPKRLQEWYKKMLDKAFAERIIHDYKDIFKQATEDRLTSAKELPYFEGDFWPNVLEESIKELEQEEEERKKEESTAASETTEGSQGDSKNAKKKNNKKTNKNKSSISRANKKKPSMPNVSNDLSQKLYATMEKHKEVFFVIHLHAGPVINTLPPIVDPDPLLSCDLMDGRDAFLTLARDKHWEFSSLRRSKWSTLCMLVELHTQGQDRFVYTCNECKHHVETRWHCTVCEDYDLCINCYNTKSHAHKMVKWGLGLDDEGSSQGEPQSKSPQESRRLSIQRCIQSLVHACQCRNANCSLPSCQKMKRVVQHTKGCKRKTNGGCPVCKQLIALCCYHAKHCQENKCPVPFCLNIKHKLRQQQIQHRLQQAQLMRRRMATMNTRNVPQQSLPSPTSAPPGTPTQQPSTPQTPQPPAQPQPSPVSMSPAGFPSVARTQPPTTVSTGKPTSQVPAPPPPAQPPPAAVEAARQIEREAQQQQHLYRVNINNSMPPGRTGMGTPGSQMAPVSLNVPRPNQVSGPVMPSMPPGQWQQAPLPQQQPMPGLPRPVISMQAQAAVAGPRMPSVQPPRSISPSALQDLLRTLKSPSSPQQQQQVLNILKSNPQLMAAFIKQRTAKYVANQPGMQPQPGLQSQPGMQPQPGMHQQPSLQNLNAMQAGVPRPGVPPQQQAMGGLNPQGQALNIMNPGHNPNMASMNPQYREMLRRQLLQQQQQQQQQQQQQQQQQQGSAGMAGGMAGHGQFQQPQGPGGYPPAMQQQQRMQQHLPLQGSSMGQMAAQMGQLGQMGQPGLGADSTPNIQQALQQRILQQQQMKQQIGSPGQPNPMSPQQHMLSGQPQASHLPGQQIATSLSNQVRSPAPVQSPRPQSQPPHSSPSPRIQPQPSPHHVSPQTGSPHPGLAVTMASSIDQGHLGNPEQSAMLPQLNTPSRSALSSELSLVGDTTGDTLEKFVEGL

CREB-binding protein [2] = target: T1, CREB-binding protein; test: Binding affinity to histidine tagged KIX domain of CREB-binding protein by fluorescence polarization assay
Target sequence in this assay (Q92793 whole entry, the tested form may be a part): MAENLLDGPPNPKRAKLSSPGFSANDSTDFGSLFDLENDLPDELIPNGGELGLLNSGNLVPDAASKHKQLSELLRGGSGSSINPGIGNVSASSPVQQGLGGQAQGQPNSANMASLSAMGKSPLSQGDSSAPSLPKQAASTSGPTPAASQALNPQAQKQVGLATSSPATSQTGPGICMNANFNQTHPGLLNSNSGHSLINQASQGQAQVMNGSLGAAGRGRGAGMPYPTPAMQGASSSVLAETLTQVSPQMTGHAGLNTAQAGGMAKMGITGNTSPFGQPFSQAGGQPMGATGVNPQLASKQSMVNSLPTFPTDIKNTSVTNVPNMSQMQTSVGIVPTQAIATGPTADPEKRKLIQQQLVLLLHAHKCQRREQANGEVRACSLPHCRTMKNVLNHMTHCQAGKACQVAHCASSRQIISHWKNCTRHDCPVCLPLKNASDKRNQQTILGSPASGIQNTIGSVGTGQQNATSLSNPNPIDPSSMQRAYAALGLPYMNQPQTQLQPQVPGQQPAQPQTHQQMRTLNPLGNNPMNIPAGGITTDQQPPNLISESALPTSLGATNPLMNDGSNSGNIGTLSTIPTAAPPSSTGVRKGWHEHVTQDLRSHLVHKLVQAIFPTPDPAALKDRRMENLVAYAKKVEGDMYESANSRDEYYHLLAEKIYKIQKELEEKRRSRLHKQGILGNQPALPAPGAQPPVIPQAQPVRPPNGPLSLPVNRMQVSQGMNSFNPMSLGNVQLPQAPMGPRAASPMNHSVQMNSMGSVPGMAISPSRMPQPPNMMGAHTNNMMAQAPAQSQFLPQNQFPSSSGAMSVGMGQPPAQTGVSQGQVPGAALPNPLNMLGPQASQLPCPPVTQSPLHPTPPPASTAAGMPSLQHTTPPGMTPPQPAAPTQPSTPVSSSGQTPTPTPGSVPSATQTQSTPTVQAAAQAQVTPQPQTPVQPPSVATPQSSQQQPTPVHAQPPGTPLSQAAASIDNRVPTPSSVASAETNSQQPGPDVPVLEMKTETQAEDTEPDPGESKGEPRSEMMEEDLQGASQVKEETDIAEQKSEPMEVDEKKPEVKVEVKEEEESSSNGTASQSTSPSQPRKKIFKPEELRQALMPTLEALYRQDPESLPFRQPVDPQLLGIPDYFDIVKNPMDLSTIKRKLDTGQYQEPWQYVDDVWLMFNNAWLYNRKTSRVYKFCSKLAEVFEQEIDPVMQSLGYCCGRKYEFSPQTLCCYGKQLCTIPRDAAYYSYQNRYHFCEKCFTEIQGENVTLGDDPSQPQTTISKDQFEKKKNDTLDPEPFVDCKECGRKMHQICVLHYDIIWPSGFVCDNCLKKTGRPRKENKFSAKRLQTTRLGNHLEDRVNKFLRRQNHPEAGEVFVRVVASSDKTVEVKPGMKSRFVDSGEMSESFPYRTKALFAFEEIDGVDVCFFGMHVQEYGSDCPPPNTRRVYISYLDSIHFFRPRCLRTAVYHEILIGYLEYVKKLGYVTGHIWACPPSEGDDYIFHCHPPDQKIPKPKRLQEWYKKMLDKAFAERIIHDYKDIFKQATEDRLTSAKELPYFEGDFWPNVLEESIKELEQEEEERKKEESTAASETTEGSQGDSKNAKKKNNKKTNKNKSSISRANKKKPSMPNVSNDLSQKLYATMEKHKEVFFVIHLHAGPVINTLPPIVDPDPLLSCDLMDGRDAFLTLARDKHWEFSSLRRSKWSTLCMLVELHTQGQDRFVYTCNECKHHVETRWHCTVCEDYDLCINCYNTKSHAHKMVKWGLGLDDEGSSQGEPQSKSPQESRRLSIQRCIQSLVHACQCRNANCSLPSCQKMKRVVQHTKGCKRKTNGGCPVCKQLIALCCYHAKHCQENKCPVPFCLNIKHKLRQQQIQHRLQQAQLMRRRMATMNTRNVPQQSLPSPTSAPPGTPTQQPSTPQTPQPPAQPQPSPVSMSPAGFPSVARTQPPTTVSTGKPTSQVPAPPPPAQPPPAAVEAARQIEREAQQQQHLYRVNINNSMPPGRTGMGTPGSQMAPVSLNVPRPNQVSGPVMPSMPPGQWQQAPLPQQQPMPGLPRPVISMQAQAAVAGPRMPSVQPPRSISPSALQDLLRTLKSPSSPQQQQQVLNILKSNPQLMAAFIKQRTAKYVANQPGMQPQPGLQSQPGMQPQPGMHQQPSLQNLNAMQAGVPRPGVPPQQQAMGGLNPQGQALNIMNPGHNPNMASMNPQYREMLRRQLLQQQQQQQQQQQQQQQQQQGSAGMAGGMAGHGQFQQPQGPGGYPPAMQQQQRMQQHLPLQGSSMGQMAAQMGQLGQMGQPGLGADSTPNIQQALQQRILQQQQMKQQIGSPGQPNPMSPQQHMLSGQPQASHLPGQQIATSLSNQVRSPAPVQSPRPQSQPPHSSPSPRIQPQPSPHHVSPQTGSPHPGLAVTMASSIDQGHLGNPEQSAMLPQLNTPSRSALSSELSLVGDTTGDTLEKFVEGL

Structure (SMILES)	Activity (CREB-binding protein [1])	Kd (CREB-binding protein [2])
CC(C)CN(CC(=O)N(CCCCN)CC(=O)N(CC(N)=O)Cc1ccc2c(c1)OCO2)C(=O)CN(Cc1ccc2c(c1)OCO2)C(=O)CN(CCCCN)C(=O)CNCc1ccc2c(c1)OCO2 (H-[Gly(N-piperonyl)][Nlys][Gly(N-piperonyl)][Nleu][Nlys][Gly(N-piperonyl)]-NH2)	inactive	195 µM
CC(C)CN(CC(=O)N(CC(=O)N(CCCCN)CC(=O)N(CC(=O)N(CCCCn1cc(CNCC(=O)N(CC(=O)N(CCO)CC(=O)N(CC(=O)N(CC(=O)N(CCCCN)CC(=O)N(CC(N)=O)Cc2ccco2)Cc2ccco2)Cc2ccc3c(c2)OCO3)Cc2ccco2)nn1)CC(N)=O)Cc1ccc2c(c1)OCO2)Cc1ccc2c(c1)OCO2)C(=O)CN(CCCCN)C(=O)CNCc1ccc2c(c1)OCO2	–	72.8 µM
C=CCN(CC(=O)N(CC(N)=O)CC(C)C)C(=O)CN(Cc1ccco1)C(=O)CN(Cc1ccco1)C(=O)CN(Cc1ccco1)C(=O)CN(CC(C)C)C(=O)CNCc1cn(CCCCN(CC(N)=O)C(=O)CN(Cc2ccc3c(c2)OCO3)C(=O)CN(CCCCN)C(=O)CN(Cc2ccc3c(c2)OCO3)C(=O)CN(CC(C)C)C(=O)CN(CCCCN)C(=O)CNCc2ccc3c(c2)OCO3)nn1	–	8.3 µM
C#CCNCC(=O)N(CC(=O)N(CC(=O)N(CC(=O)N(CC(=O)N(CC=C)CC(=O)N(CC(N)=O)CC(C)C)Cc1ccco1)Cc1ccco1)Cc1ccco1)CC(C)C (H-[Gly(N-propargyl)][Nleu][NFurfurylGly][NFurfurylGly][NFurfurylGly][NAllylGly][Nleu]-NH2)	Active	4.6 µM

Source: ChEMBL document CHEMBL1153601, “Rapid identification of improved protein ligands using peptoid microarrays” (Bioorg Med Chem Lett, 2009)
